Data reported in patent publication US20120270884A1, “Methods of Treating Aneurysmal Dilatation, Blood Vessel Wall Weakness and Specifically Abdominal Aortic and Thoracic Aneurysm Using Matrix Metalloprotease-2 Inhibitors” (SYMPHONY EVOLUTION, INC., priority 2009, published 2012).

Legend:
Assay type in all cases: biochemical
MMP-3 (Stromelysin-1) = MMP-3 (Stromelysin-1) (Homo sapiens, UniProt P08254); experiment: In vitro metalloprotease inhibition, MMP-3
Excerpt: (§1) Blank cells indicate lack of data only.

[1] = biological target: TACE (TNF-alpha converting enzyme, ADAM-17) (Homo sapiens, UniProt P78536); experiment: In vitro metalloprotease inhibition, TACE
Excerpt: as §1

[2] = biological target: T1, MMP-1 (Fibroblast collagenase) (Homo sapiens, UniProt P03956); experiment: In vitro metalloprotease inhibition, MMP-1
T1 sequence (P03956 100-469): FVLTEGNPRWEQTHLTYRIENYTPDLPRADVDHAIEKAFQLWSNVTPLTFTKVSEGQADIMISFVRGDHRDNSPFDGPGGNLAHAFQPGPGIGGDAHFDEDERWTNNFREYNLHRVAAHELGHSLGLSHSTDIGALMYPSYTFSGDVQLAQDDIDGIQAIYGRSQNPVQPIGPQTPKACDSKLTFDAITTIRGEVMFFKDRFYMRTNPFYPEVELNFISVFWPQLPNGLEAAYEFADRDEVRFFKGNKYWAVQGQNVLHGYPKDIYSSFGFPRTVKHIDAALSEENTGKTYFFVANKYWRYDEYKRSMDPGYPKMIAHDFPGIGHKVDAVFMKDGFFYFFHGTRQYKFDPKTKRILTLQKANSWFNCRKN
Excerpt: as §1

MMP-13 (collagenase-3) = MMP-13 (collagenase-3) (Homo sapiens, UniProt P45452); experiment: In vitro metalloprotease inhibition, MMP-13
[3] = biological target: T2, MMP-2 (72 kDa gelatinase, gelatinase A) (Homo sapiens, UniProt P08253); experiment: In vitro metalloprotease inhibition, MMP-2
T2 sequence (P08253 110-660): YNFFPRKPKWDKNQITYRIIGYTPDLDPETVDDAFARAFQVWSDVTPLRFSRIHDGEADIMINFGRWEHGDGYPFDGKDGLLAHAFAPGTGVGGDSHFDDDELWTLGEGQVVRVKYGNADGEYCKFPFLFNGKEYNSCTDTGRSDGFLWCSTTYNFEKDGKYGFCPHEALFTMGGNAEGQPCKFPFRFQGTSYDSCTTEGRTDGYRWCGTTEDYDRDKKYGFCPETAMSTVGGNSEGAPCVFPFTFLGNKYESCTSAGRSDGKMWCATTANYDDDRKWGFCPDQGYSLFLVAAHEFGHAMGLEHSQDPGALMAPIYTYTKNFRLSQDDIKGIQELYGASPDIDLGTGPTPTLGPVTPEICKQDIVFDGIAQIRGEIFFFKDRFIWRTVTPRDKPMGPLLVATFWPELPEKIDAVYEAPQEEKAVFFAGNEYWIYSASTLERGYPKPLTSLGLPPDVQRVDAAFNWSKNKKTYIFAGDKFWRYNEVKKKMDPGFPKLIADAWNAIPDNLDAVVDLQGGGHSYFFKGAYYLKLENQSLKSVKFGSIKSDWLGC

Chain of MMP-3 (Stromelysin-1) (P08254 100-477, species assumed): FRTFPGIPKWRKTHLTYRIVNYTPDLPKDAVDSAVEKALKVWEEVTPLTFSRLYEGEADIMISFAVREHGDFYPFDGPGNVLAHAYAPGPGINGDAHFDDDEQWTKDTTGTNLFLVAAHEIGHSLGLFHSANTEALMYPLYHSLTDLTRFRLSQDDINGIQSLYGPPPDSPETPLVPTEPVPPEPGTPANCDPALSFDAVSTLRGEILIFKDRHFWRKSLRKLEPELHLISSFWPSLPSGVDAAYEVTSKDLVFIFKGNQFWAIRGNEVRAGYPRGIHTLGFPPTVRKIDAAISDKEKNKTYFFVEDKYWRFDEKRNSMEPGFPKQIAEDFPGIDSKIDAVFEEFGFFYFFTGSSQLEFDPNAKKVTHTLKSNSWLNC
Chain of TACE (TNF-alpha converting enzyme, ADAM-17) (P78536 215-824): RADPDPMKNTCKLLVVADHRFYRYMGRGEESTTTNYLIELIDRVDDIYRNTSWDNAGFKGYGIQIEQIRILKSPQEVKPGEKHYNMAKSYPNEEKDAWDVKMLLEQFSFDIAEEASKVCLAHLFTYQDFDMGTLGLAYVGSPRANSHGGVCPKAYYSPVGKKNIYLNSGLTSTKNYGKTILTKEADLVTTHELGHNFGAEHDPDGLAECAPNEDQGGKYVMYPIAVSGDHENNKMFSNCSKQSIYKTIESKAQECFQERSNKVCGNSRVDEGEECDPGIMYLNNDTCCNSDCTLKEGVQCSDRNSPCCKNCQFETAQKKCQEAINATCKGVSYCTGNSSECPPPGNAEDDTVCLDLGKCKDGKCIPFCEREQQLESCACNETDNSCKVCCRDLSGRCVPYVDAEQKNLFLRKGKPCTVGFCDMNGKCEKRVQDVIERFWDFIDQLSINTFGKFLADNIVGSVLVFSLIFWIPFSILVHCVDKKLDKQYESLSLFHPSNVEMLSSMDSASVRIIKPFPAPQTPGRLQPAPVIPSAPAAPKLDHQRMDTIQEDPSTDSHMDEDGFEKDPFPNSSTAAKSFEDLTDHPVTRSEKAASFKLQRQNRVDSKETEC

Structure (SMILES) | IC50 (MMP-3 (Stromelysin-1)) [nM] | IC50 [1] [nM] | IC50 [2] [nM] | IC50 (MMP-13 (collagenase-3)) [nM] | IC50 [3] [nM]
O=C(NO)[C@H]1CN(S(=O)(=O)c2cccnc2O)CCN1S(=O)(=O)c1cc(F)c(Oc2ccc(Cl)cc2)c(F)c1 [Entry 45] | 50 to 1000 | 50 to 1000 | 1000 to 20000 | < 50 | < 50
O=C(NO)[C@H]1CN(C(=O)c2cccnc2)CCN1S(=O)(=O)c1cc(F)c(Oc2ccc(Cl)cc2)c(F)c1 [Entry 59] | 50 to 1000 | 50 to 1000 | 1000 to 20000 | < 50 | < 50
O=C(NO)[C@H]1CN(C(=O)C(=O)N2CCOCC2)CCN1S(=O)(=O)c1cc(F)c(Oc2ccc(Cl)cc2)c(F)c1 [Entry 31] | 50 to 1000 | 50 to 1000 | 1000 to 20000 | < 50 | < 50
O=C(NO)[C@H]1CN(S(=O)(=O)NC(=O)N2CCCCC2)CCN1S(=O)(=O)c1cc(F)c(Oc2ccc(Cl)cc2)c(F)c1 [Entry 37] | < 50 | 50 to 1000 | 1000 to 20000 | < 50 | < 50
O=C(NO)[C@H]1CN(S(=O)(=O)NC(=O)N2CCOCC2)CCN1S(=O)(=O)c1cc(F)c(Oc2ccc(Cl)cc2)c(F)c1 [Entry 38] | < 50 | 50 to 1000 | 1000 to 20000 | < 50 | < 50
CN(C)c1ccc2ccc(S(=O)(=O)N3CCN(S(=O)(=O)c4cc(F)c(Oc5ccc(Cl)cc5)c(F)c4)[C@@H](C(=O)NO)C3)cc2c1 [Entry 50] | 50 to 1000 | – | > 20000 | < 50 | > 20000
O=C(NO)[C@H]1CN(C(=O)CN2CCCCC2)CCN1S(=O)(=O)c1cc(F)c(Oc2ccc(Cl)cc2)c(F)c1 [Entry 26] | 1000 to 20000 | – | > 20000 | < 50 | < 50
O=C(NO)[C@H]1CN(S(=O)(=O)Cc2ccncc2)CCN1S(=O)(=O)c1cc(F)c(Oc2ccc(Cl)cc2)c(F)c1 [Entry 34] | 50 to 1000 | < 50 | 1000 to 20000 | < 50 | < 50
O=C(NO)[C@H]1CN(S(=O)(=O)Cc2cc(Cl)cc(Cl)c2)CCN1S(=O)(=O)c1cc(F)c(Oc2ccc(Cl)cc2)c(F)c1 [Entry 61] | > 20000 | – | > 20000 | 1000 to 20000 | 1000 to 20000
O=C(CN1CCOCC1)NC(=O)N1CCN(S(=O)(=O)c2cc(F)c(Oc3ccc(Cl)cc3)c(F)c2)[C@@H](C(=O)NO)C1 [Entry 46] | 50 to 1000 | – | 1000 to 20000 | < 50 | < 50
C=CCN1CCN(S(=O)(=O)c2cc(F)c(Oc3ccc(Cl)cc3)c(F)c2)[C@@H](C(=O)NO)C1 [Entry 62] | 1000 to 20000 | – | > 20000 | < 50 | < 50
O=C(NO)[C@H]1CN(C(=O)CN2CCOCC2)CCN1S(=O)(=O)c1cc(F)c(Oc2ccc(Cl)cc2)c(F)c1 [Entry 25] | 50 to 1000 | – | > 20000 | < 50 | < 50
O=C(NO)[C@H]1CN(C(=O)c2ccncc2)CCN1S(=O)(=O)c1cc(F)c(Oc2ccc(Cl)cc2)c(F)c1 [Entry 42] | 1000 to 20000 | – | 1000 to 20000 | < 50 | < 50
COCCOC(=O)N1CCN(S(=O)(=O)c2ccc(Oc3ccc(C#N)cc3)c(F)c2)[C@@H](C(=O)NO)C1 [Entry 5] | 50 to 1000 | – | 50 to 1000 | < 50 | < 50
COCCOC(=O)N1CCN(S(=O)(=O)c2ccc(Oc3ccc(Cl)cc3)c(F)c2)[C@@H](C(=O)NO)C1 [Entry 4] | < 50 | – | 50 to 1000 | < 50 | < 50
COCCOC(=O)N1CCN(S(=O)(=O)c2ccc(Oc3ccc(F)cc3)cc2)[C@@H](C(=O)NO)C1 [Entry 1] | < 50 | – | < 50 | < 50 | < 50
COCCOC(=O)N1CCN(S(=O)(=O)c2ccc(-c3cccc(F)c3)nc2)[C@@H](C(=O)NO)C1 [Entry 66] | < 50 | – | 50 to 1000 | < 50 | < 50
CN(C)S(=O)(=O)N1CCN(S(=O)(=O)c2cc(F)c(Oc3ccc(Cl)cc3)c(F)c2)[C@@H](C(=O)NO)C1 [Entry 36] | 50 to 1000 | – | 1000 to 20000 | < 50 | < 50
O=C(NO)[C@H]1CN(C(=O)N2CCOCC2)CCN1S(=O)(=O)c1ccc(Oc2ccc(F)cc2)cc1 [Entry 2] | < 50 | – | < 50 | < 50 | < 50
CN(C)C(=O)CN1CCN(S(=O)(=O)c2cc(F)c(Oc3ccc(Cl)cc3)c(F)c2)[C@@H](C(=O)NO)C1 [Entry 20] | 1000 to 20000 | – | > 20000 | < 50 | < 50
O=C(NO)[C@H]1CN(S(=O)(=O)c2cccc3cnccc23)CCN1S(=O)(=O)c1cc(F)c(Oc2ccc(Cl)cc2)c(F)c1 [Entry 48] | 50 to 1000 | – | > 20000 | < 50 | < 50
CN(C)CCS(=O)(=O)N1CCN(S(=O)(=O)c2cc(F)c(Oc3ccc(Cl)cc3)c(F)c2)[C@@H](C(=O)NO)C1 [Entry 54] | < 50 | < 50 | 50 to 1000 | < 50 | < 50
O=C(NO)[C@H]1CN(S(=O)(=O)CCN2CCCCC2)CCN1S(=O)(=O)c1cc(F)c(Oc2ccc(Cl)cc2)c(F)c1 [Entry 53] | 50 to 1000 | – | 50 to 1000 | < 50 | < 50
CCOC(=O)N1CCN(S(=O)(=O)c2cc(F)c(Oc3ccc(F)cc3)c(F)c2)[C@@H](C(=O)NO)C1 [Entry 13] | 50 to 1000 | – | 1000 to 20000 | < 50 | < 50
CS(=O)(=O)N1CCN(S(=O)(=O)c2cc(F)c(Oc3ccc(Cl)cc3)c(F)c2)[C@@H](C(=O)NO)C1 [Entry 28] | 50 to 1000 | – | 50 to 1000 | < 50 | < 50
O=C(NO)[C@H]1CN(C(=O)N2CCOCC2)CCN1S(=O)(=O)c1cc(F)c(Oc2ccc(F)cc2)c(F)c1 [Entry 12] | 50 to 1000 | – | 1000 to 20000 | < 50 | < 50
